Key:
[1] = tested on: RBE cells; assay: Cell Viability Protocol (CellTiterGlo), RBE cells; type: cell-based; conditions: RBE or SNU-1079 cells, 72 or 120 hour, cell line and time not given
Summary of the method: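 RBE cells plated at 1200/well in RPMI 1640 with 10% FBS, incubated 24 h, then dosed with compound from DMSO stocks and incubated 72 or 120 h at 37° C. CellTiterGlo luminescence normalised to DMSO control; IC50 from 4-parameter fit.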

[2] = target: SRC (Homo sapiens, UniProt P12931); assay: SRC Biochemical Assay Protocol (microfluidic mobility shift assay, FLPeptide4 substrate)
SRC, sequence (P12931 whole entry, species assumed): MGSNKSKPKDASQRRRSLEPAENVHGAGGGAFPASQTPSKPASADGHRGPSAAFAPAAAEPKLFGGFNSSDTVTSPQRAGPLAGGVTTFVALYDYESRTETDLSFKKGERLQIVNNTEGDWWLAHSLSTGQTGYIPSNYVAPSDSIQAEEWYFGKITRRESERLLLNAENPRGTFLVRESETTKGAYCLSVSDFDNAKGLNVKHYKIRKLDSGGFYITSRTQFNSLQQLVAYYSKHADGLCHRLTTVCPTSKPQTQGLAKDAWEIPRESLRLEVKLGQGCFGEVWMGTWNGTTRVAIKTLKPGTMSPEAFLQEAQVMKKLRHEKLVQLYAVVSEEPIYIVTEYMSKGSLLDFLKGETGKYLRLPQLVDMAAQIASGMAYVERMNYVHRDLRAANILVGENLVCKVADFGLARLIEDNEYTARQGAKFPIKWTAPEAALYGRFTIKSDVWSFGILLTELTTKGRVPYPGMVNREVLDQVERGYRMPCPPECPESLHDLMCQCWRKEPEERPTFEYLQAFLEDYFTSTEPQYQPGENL
Summary of the method: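 Recombinant SRC (0.26 nM) preincubated 30 min at RT with compound (0.0017–100 μM) and 1.5 μM FLPeptide4, then 50 μM ATP added; 90 min reaction in HEPES pH 7.4, 10 mM MgCl2, 1% DMSO, EDTA-quenched. Phosphopeptide quantified by microfluidic mobility shift; IC50 from 4-parameter logistic fit.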

[3] = tested on: phospho-S6RP (Ser 235/236) in RBE cells; assay: Cellular Proliferation Protocol (cellular phospho-S6RP HTRF), RBE cells; type: cell-based; conditions: 6 hours treatment, RBE or SNU-1079 cells, cell line not given
Method: Cellular Proliferation Protocol
Cellular phospho-S6RP (Ser 235/236) was measured using a Fluorescence Resonance Energy Transfer (FRET) sandwich assay format (Cisbio HTRF Cat. No. 64RP6PEG). This format uses 2 different, labelled antibodies (Eu^3+-Cryptate donor and d2 acceptor) that positively modulate a specific signal in proportion to phospho-S6RP (Ser 235/236) directly in cells. RBE or SNU-1079 cells were cultivated in T-75 flasks at 37° C., 5% CO2, 95% relative humidity in RPMI 1640 medium with 10% FBS and 1% Penicillin/Streptomycin and detached with trypsin/EDTA at 80-90% confluency. Cells were then seeded in 40 μL volume per well in 384-well flat-bottom polystyrene microplates (Corning Cat. No. 3570) at a seeding density of 2000 cells/well for RBE and 3000 cells/well for SNU-1079 followed by 24 hour incubation at 37° C., 5% CO2, 95% relative humidity. On the next day, compounds were diluted to […] the indicated concentrations and 40 nL of these treatment compounds, along with DMSO vehicle control, were added to the cells (final concentration of compounds is then the indicated concentrations). Treatment was carried out for 6 hours at 37° C., 5% CO2, 95% relative humidity after which the plates were cooled to room temperature before aspirating the medium. Cells were then lysed on a shaker for 45 minutes at room temperature with 20 μL of 1× supplemented lysis buffer per well. After lysis, 5 μL of pre-mixed antibodies was added per well. Plates were covered with black sealing film and incubated overnight at room temperature on a shaker before being read on a PerkinElmer EnVision microplate reader. Percent activation was calculated relative to DMSO control and IC50 values were obtained from dose-response data fitted to a 4-parameter curve.

SMILES	IC50 [1] [nM]	IC50 [2] [nM]	IC50 [3] [nM]	IC50 ([3]; 6 h) [nM]
C=CC(=O)N1CC[C@@H](N2CC(C#Cc3c(-c4ccc(C5CC5)cc4)c4c(N)ncnc4n3C)C2)[C@@H](O)C1 [II-69]	10 to 1000	10 to 1000	10 to 1000	
C=CC(=O)N1C[C@@H]2[C@@H](C#Cc3c(-c4ccc(Oc5cccc(C)n5)cc4OC)c4c(N)ncnc4n3CCCO)[C@@H]2C1 [II-49]	10 to 1000	10 to 1000	10 to 1000	
C=CC(=O)N1CCC(N2CC(C#Cc3c(-c4ccc(Cl)c(C)n4)c4c(N)ncnc4n3C(C)C)C2)CC1 [II-326]	10 to 1000	10 to 1000	10 to 1000	
C=CC(=O)N1CCN(C2CC(C#Cc3c(-c4ccc(Oc5ccccc5)cc4)c4c(N)ncnc4n3C)C2)C(=O)C1 (stereo not drawn) [II-166, 4-acryloyl-1-(3-((4-amino-7-methyl-5-(4-phenoxyphenyl)-7H-pyrrolo[2,3-d]pyrimidin-6-yl)ethynyl)cyclobutyl) piperazin-2-one]	≤ 10	≤ 10		≤ 10
Cc1cccc(Oc2ccc(-c3c(C#C[C@@H]4[C@H]5CN(C(=O)/C=C/CN(C)C)C[C@@H]45)n(C4CCOC4)c4ncnc(N)c34)cc2)n1 (mixture of isomers) [II-28]	10 to 1000	10 to 1000	10 to 1000	
Cn1c(C#CC2CC3(C2)CN(C(=O)/C=C/CN2CC(O)C2)C3)c(-c2ccc(Oc3ccccc3)cc2)c2c(N)ncnc21 [II-174, (E)-1-(6-((4-amino-7-methyl-5-(4-phenoxyphenyl)-7H-pyrrolo[2,3-d]pyrimidin-6-yl)ethynyl)-2-azaspiro[3.3]heptan-2-yl)-4-(3-hydroxyazetidin-1-yl)but-2-en-1-one]	10 to 1000	≤ 10		10 to 1000
C=CC(=O)N1CCC(N2CC(C#Cc3c(-c4ccc(Oc5ccccc5)cc4)c4c(N)ncnc4n3C)C2)C[C@@H]1COC (stereo partly drawn) [II-186, 1-((2R)-4-(3-((4-amino-7-methyl-5-(4-phenoxyphenyl)-7H-pyrrolo[2,3-d]pyrimidin-6-yl)ethynyl)azetidin-1-yl)-2-(methoxymethyl)piperidin-1-yl)prop-2-en-1-one]	≤ 10	≤ 10		≤ 10
C=CC(=O)N1C[C@@H]2[C@@H](C#Cc3c(-c4cc(Cl)ccc4OC)c4c(N)ncnc4n3C)[C@@H]2C1 [II-260]	10 to 1000	10 to 1000		10 to 1000
C=CC(=O)N1CC[C@H](N2CC(C#Cc3c(-c4ccc(Cl)c(C)c4)c4c(N)ncnc4n3CC)C2)[C@H](O)C1 [II-113]	10 to 1000	≤ 10	10 to 1000	
C=CC(=O)NCC(=O)N1C[C@@H]2[C@@H](C#Cc3c(-c4ccc(Oc5ccccc5)cc4)c4c(N)ncnc4n3C)[C@@H]2C1 [II-211, N-[2-[(1R,5S,6S)-6-[2-[4-amino-7-methyl-5-(4-phenoxyphenyl)-7H-pyrrolo[2,3-d]pyrimidin-6-yl]ethynyl]-3-azabicyclo[3.1.0]hexan-3-yl]-2-oxoethyl]prop-2-enamide]	≤ 10	≤ 10		≤ 10
C=CC(=O)N1C[C@@H]2[C@@H](C#Cc3c(-c4ccc(Oc5ccccc5)cc4OC)c4c(N)ncnc4n3C3CCOC3)[C@@H]2C1 (mixture of isomers) [II-40]	≤ 10	≤ 10	≤ 10	
C=CC(=O)N1CCC(N2CC(C#Cc3c(-c4ccc(Oc5ccccc5)c(OC)n4)c4c(N)ncnc4n3C)C2)CC1 [II-315]	≤ 10	10 to 1000	10 to 1000	
C=CC(=O)N1CC2C(C#Cc3c(-c4cccc5c4OCO5)c4c(N)ncnc4n3C)C2C1 (stereo not drawn) [II-126]	10 to 1000	≤ 10	10 to 1000	
C=CC(=O)N1CC[C@@H](N2CC(C#Cc3c(-c4cccc5c4cnn5C)c4c(N)ncnc4n3C)C2)[C@@H](O)C1 [II-63, 1-((3S,4R)-4-(3-((4-amino-7-methyl-5-(1-methyl-1H-indazol-4-yl)-7H-pyrrolo[2,3-d]pyrimidin-6-yl)ethynyl)azetidin-1-yl)-3-hydroxypiperidin-1-yl)prop-2-en-1-one]	1000 to 10000	1000 to 10000		1000 to 10000
C=CC(=O)N1CC2C(C#Cc3c(-c4ccc(Cl)c5c4OC(F)(F)O5)c4c(N)ncnc4n3C)C2C1 (stereo not drawn) [II-128]	10 to 1000	1000 to 10000	1000 to 10000	

Reference: patent US20250154154A1 (Relay Binney Street, 2nd Floor, priority 2020, published 2025)
